Laboratory results from patent US8580843B2, “Use of diindolylmethane (DIM) compounds and derivatives as neuroprotective agents” (Colorado State University Research Foundation, priority 2008, dated 2013).

Tests used:
[1] = test system: primary striatal neurons co-cultured with activated astrocytes; experiment: Astrocyte-neuron co-culture: apoptosis of primary striatal neurons (caspase activity, Annexin V binding); assay type: cell-based, mouse; conditions: astrocytes co-treated with 25 nM for 8 hours, six hours of co-culture; FIG. 6 C-D
Experimental: Astrocyte Neuron Co-Culture. Cells were isolated as described above and astrocytes grown to confluence on permeable cell culture inserts (BD Biosciences, San Jose, Calif.) prior to treatment. Astrocytes were then treated with MPTP (10 μM), TNF-α (10 pg/ml) and IFN-γ (1 ng/ml) in the presence or absence of DIM-C-pPhtBu (10 μM), Rosiglitazone (10 μM) AMT (25 nM), or DMSO vehicle control for 8 hours. Media was then removed, and the astrocytes washed three times with sterile PBS to prevent carryover of treatment medium to the neurons, and the inserts were placed directly in each well over cultured neurons. Astrocyte-containing inserts were removed following six hours of co-culture, and neuronal caspase activity and phosphatidylserine translocation were measured by widefield fluorescence microscopy using the general cell permeable fluorescent caspase substrate rhodamine 110, bis-(L-aspartic acid amide) and an Annexin V Alexa Fluor 680 conjugate, respectively. Images were acquired using a Zeiss 20× air PlanApochromat objective and at least 10 microscopic fields were examined per treatment group over three independent experiments.
The efficacy of DIM-C-pPhtBu in preventing astrocyte-dependent neuronal apoptosis was examined in FIG. 6. Astrocytes were grown to confluence in cell culture inserts that are permeable to small molecules but prevent direct cell-cell contact. Following treatment of astrocytes with MPTP and TNF-α/IFN-γ in the presence or absence of DIM-C-pPhtBu (10 μM), rosiglitazone (10 μM), the NOS2 inhibitor AMT (25 nM), or DMSO, astrocytes were washed with PBS and co-incubated directly above primary striatal neurons in neurobasal medium. Indices of neuronal apoptosis were then measured using live-cell fluorescence imaging of caspase activity (FIG. 6A) and Annexin V binding (FIG. 6B). […] The DMSO vehicle control had no suppressive effect.
Differing letters denote statistical significance (p<0.05).

[2] = test system: 3-nitrotyrosine protein nitration in astrocytes; experiment: Immunofluorescence of 3-nitrotyrosine adducts (protein nitration) in primary astrocytes treated with MPTP and cytokines; assay type: cell-based, mouse
Experimental: Immunofluorescence. Primary astrocytes were grown to confluence on 20 mm serum-coated glass coverslips and treated with saline or MPTP (10 μM), TNF-α (10 pg/ml), and IFN-γ (1 ng/ml) with or without DIM-C-pPhtBu (10 μM), rosiglitazone (10 μM), the NOS2 inhibitor AMT (25 nM) or NOS 1 inhibitor 7-NI (10 μM), or a DMSO vehicle control 8 hours prior to analysis. Immunofluorescence to confirm culture purity was conducted on cells grown to confluence on the 20 mm glass coverslips. Blocking and antibody hybridization was conducted in 1% BSA (w/v) in PBS, and all washes were conducted in PBS. Images were acquired using a Zeiss 20× air PlanApochromat objective and 6-8 microscopic fields were examined per treatment group over no less than three independent experiments. Fluorescent secondary antibodies were used to detect GFAP (488 nmcx/519 nmcm) and Iba1 or nitrosylated protein (647 nmcx/668 nmcm), respectively, while mounting medium containing DAPI (360 nmcx/460 nmcm) was used to identify cell nuclei.
The effect of NOS2 induction by MPTP and inflammatory cytokines on global protein nitration following NO/peroxynitrite (ONOO—) formation in astrocytes was examined by immunofluorescence (FIG. 3). Immunofluorescence using antibodies against GFAP (FITC) and 3-nitrotyrosine adducts (Cy5) was employed to measure the extent of protein nitration within astrocytes treated with MPTP and cytokines, with or without inclusion of DIM-C-pPhtBu (10 μM), rosiglitazone (10 μM), the high-affinity NOS2 inhibitor AMT (25 nM), the NOSI inhibitor 7-NI (10 μM) or a DMSO vehicle control. […] Co-treatment of astroytes with DIM-C-pPhtBu prevented MPTP-induced increases in nitration, resulting in similar levels of 3-nitrotyrosine adducts as saline-treated control cells (FIG. 3C). Mean intracellular fluorescence for 3-nitrotyrosine was quantified and compared between each treatment group (FIG. 3D).

SMILES: CC1CCN=C(N)S1 (stereo not drawn) [AMT, 2-amino-5,6-dihydro-6-methyl-4H-1,3-thiazine]
- Apoptosis in co-cultured striatal neurons (caspase activity and Annexin V-binding) [1]: prevented
- MPTP-induced increase in 3-nitrotyrosine formation ([2]; 25 nM co-treatment, astrocytes, FIG. 3D): prevented
- Protein nitration in primary astrocytes induced by MPTP and TNF-α/IFN-γ ([2]; FIG. 7(D), concentration not given): prevents protein nitration
